Here are results for 13 compounds from ChEMBL document CHEMBL1130515, “4-Heterocyclyl tetrahydropyridines as selective ligands for the human dopamine D4 receptor” (Bioorg Med Chem Lett, 1997).

Broadly, the Ki is the equilibrium dissociation constant of an inhibitor or competing ligand from its target. Usually half-life stands for the time in which the quantity being followed falls by half. One may read the Cmax as the maximum level reached in the sampled fluid or tissue.

The target of data set [1] is D(3) dopamine receptor (Homo sapiens, UniProt P35462). The data set can be described thus: Displacement of [3H]spiperone from human dopamine receptor subtype hD3 expressed in CHO cells. The data set is classed as cell-based. (In general: Loss of bound radioactivity is the signal in a displacement assay; it reports binding, not function.)
Chain of D(3) dopamine receptor (P35462 whole entry): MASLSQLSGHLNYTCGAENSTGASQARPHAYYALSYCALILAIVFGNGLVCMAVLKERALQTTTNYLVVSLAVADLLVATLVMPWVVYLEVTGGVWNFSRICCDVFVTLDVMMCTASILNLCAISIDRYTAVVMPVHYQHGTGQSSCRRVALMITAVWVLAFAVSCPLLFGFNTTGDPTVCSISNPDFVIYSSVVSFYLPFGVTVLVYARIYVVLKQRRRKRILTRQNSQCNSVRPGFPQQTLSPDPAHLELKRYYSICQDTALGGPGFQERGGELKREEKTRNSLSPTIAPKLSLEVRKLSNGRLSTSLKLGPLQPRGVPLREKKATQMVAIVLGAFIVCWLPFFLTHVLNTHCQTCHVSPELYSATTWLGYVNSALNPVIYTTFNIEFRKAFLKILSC
Data set [2] in a line: Bioavailability was evaluated in rhesus monkey at an intravenous dose of 1 mg/kg and peroral dose of 1 mg/kg. The settings on record: in vivo, po, read-out: Bioavailabiility. The data set is classed as ADME, organism-based, Macaca mulatta.
Data set [3] concerns the target D(2) dopamine receptor (Homo sapiens, UniProt P14416). The data set can be described thus: Displacement of [3H]spiperone from human dopamine D2 receptor in CHO cells. The data set is classed as cell-based.
The nature of data set [4]: Half life was evaluated in rhesus monkey at an intravenous dose of 1 mg/kg and peroral dose of 1 mg/kg. The data set is classed as ADME, organism-based, Macaca mulatta. The settings on record: in vivo.
Data set [5] has as its system Rattus norvegicus. The data set can be described thus: Volume of distribution (Vss) was evaluated in rat at an intravenous dose of 3 mg/kg and peroral dose of 5 mg/kg. The data set is classed as ADME, organism-based. The settings on record: in vivo.
The nature of data set [6]: Maximum concentration in plasma (Cmax) was evaluated in rat at an intravenous dose of 3 mg/kg and peroral dose of 5 mg/kg. The settings on record: po. The data set is classed as ADME, organism-based.
Data set [7] relates to Rhesus monkey. The data set can be described thus: Volume of distribution (Vss) was evaluated in rhesus monkey at an intravenous dose of 1 mg/kg and peroral dose of 1 mg/kg. The settings on record: in vivo. The data set is classed as ADME, organism-based, Macaca mulatta.
Data set [8] can be described thus: Maximum concentration in plasma (Cmax) was evaluated in rhesus monkey at an intravenous dose of 1 mg/kg and peroral dose of 1 mg/kg. The data set is classed as ADME, organism-based, Macaca mulatta. The settings on record: po.
Data set [9] in a line: Half life was evaluated in rat at an intravenous dose of 3 mg/kg and peroral dose of 5 mg/kg. The data set is classed as ADME, organism-based. The settings on record: in vivo.
The target in data set [10] is T1, D(4) dopamine receptor (Homo sapiens, UniProt P21917).
T1 sequence (P21917 whole entry): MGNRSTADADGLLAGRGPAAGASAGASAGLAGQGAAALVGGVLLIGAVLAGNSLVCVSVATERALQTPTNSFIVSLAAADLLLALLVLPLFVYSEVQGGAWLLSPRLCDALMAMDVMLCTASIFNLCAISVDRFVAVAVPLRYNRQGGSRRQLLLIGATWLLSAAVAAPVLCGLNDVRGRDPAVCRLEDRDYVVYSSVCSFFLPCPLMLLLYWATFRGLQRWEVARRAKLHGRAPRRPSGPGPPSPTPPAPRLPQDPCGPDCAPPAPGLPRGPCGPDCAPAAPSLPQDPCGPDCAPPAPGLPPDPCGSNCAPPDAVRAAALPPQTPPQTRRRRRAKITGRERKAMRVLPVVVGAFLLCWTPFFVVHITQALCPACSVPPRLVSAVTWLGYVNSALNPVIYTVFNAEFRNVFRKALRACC
The data set can be described thus: Displacement of [3H]spiperone from human dopamine receptor subtype hD4 expressed in HEK293 cells. The data set is classed as cell-based.

The nature of data set [11]: Bioavailability was evaluated in rat at an intravenous dose of 3 mg/kg and peroral dose of 5 mg/kg. The data set is classed as ADME, organism-based. The settings on record: in vivo, po, read-out: Bioavailabiility.
Data set [12] deals with Dopamine receptors; D2 & D4 (Homo sapiens) (UniProt P14416+P21917). The data set can be described thus: Ratio of dopamine D2/D4 receptor binding. The data set is classed as protein assay.
Chain of Dopamine receptors; D2 & D4 (Homo sapiens) (P14416 whole entry, looked up, one chain of several): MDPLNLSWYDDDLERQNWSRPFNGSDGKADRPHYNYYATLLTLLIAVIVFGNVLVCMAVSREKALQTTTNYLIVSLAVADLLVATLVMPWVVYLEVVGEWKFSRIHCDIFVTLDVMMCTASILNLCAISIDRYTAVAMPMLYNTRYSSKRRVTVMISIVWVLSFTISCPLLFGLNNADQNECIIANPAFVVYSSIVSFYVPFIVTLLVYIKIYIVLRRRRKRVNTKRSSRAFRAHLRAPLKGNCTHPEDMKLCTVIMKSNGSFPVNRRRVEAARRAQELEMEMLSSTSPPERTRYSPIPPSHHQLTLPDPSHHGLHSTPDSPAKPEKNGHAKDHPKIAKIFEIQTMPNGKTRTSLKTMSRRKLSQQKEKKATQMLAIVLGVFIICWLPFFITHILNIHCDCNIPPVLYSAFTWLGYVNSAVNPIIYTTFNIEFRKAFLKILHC
Data set [13] deals with Rattus norvegicus. The data set can be described thus: Plasma clearance was evaluated in rat at an intravenous dose of 3 mg/kg and peroral dose of 5 mg/kg. The data set is classed as ADME, organism-based. The settings on record: in vivo.

Chain of D(2) dopamine receptor (P14416 whole entry): as the sequence (P14416 whole entry, looked up, one chain of several) above

Turning to `Clc1ccc(CN2CC=C(c3nc4ccccc4s3)CC2)cc1`, the Ki in [1] was greater than 4400 nM; in [3], greater than 1600 nM; in data set [10], 1.3 nM. Besides, the bioavailability stood at 9% in data set [2] and 17% in data set [11]. The half-life was 4.7 h in [4] and 3.1 h in [9]. The Vss in [5] is 3.81 kg⁻¹; in [7], 2.5 kg⁻¹. In addition, the results for the Cmax in data set [6] and in data set [8] were 97 ng/mL and 23 ng/mL, respectively. In [12], the Ratio was greater than 1000. The compound also yielded a Plasma clearance in data set [13] of 39 Clp.

Take `Clc1ccc(CN2CC=C(c3nc4cc(Cl)ccc4o3)CC2)cc1`: the Ki is greater than 4500 nM in data set [1], greater than 1700 nM in data set [3] and 8.4 nM in data set [10]. The Ratio in data set [12] is greater than 200.

For `C1=C(c2nc3ccccc3[nH]2)CCN(Cc2ccccc2)C1`, the Ki in data set [1] was determined as 4400 nM; in [3], 1400 nM; in data set [10] it was 94 nM. The Ratio in data set [12] was 15.

Take `Clc1ccccc1CN1CC=C(c2nc3ccccc3s2)CC1`: the inhibitory constant (Ki) was 1400 nM in [1], greater than 2000 nM in [3] and 87 nM in data set [10]. In addition, the Ratio in data set [12] was greater than 23.

Consider `Clc1cccc(CN2CC=C(c3nc4ccccc4s3)CC2)c1`, for which the Ki is 630 nM in [1], 340 nM in data set [3] and 8.1 nM in [10]. In [12], the Ratio was determined as 42.

Consider `Clc1ccc(CN2CC=C(c3nc4cc(Cl)ccc4s3)CC2)cc1`, for which the Ki was 660 nM in data set [1], 2000 nM in data set [3] and 21 nM in [10]. For the same compound, the Ratio in data set [12] was determined as 97.

Regarding `C1=C(c2nc3ccccc3s2)CCN(Cc2ccccc2)C1`, the inhibition constant Ki in [1] came out at 560 nM; in data set [3], 600 nM; in [10], 5 nM. Further, in [12], the Ratio came out at 120.

In the case of `Clc1ccc2oc(C3=CCN(Cc4ccccc4)CC3)nc2c1`, the values for the inhibitory constant (Ki) in data set [1], in [3] and in data set [10] were 1600 nM, greater than 1800 nM and 17 nM, respectively. Besides, the Ratio in data set [12] is greater than 100.

With `Clc1ccc2sc(C3=CCN(Cc4ccccc4)CC3)nc2c1`, the inhibitory constant (Ki) in [1] was 1800 nM; in data set [3], greater than 1600 nM; in [10] it was 44 nM. In addition, the Ratio in [12] was greater than 36.

On to `Clc1ccc2[nH]c(C3=CCN(Cc4ccccc4)CC3)nc2c1`, for which the Ki in [1] amounted to 2900 nM; in data set [3], 590 nM; in data set [10], 26 nM. Moreover, the Ratio in data set [12] turned out to be 23.

Take `Clc1ccc(CN2CC=C(c3nc4cc(Cl)ccc4[nH]3)CC2)cc1`: the Ki is 900 nM in [1], 330 nM in data set [3] and 10 nM in data set [10]. Further, in data set [12], the Ratio was 33.

Take `Clc1ccc(CN2CC=C(c3nc4ccccc4[nH]3)CC2)cc1`: the Ki in data set [1] came to 1600 nM; in data set [3] it was 670 nM; in data set [10], 68 nM. Moreover, the Ratio in data set [12] stood at 10.

As for `C1=C(c2nc3ccccc3o2)CCN(Cc2ccccc2)C1`, the values for the inhibition constant Ki in [1], in data set [3] and in data set [10] were 4500 nM, 240 nM and 97 nM, respectively. Further, the Ratio in data set [12] is 3.
